What was measured:
[1] = tested on: house dust mites (Dermatophagoides farinae, Dermatophagoides pterohyssinus and Tyrophagus putrescentiae mixed); test: Test for killing mites; assay type: in vivo; settings: ozone 50 ppm, humidity 72%, 2 hours, no direct UV
Description: Mites used for test was the house dust mites (samples containing Dermatophagoides farinae, Dermatophagoides pterohyssinus and Tyrophagus putrescentiae mixed up one another were used) which were generally known as primary cause of allergy, which was distributed from the parasitology class of the medical college of Yonsei University in Korea. After the opening the lid of the tube containing twenty mites, the mites were exposed to the environment with the ozone of 50 ppm and the humidity of 72% for 2 hours while the mites were not exposed directly to the ultraviolet rays. After exposition of the mites to the ozone for a given time period, the number of the surviving mites and the number of the dead mites were counted by means of a microscopic examination.

[2] = tested on: Staphylococcus aureus KCTC 1621; test: Test for sterilizing microorganisms, ozone exposure of agar culture; assay type: cell-based; settings: S. aureus, ozone 70 ppm, humidity 50%, no direct UV
Description: (§1) The microorganisms used for the sterilization test were Escherichia coli DH12S, Staphylococcus aureus KCTC 1621 and Candida albicans KCTC 7965, which are known as pathogenic microorganisms. An UV/O3 lamp ([…]) was used as the generator for generating ultraviolet rays and ozone.
(§2) Each of the microorganisms was cultivated on appropriate culture medium used commonly: Escherichia coli was cultivated on LB culture medium, Staphylococcus aureus was cultivated on Tryptic Soy culture medium; and Candida albicans was cultivated on YM culture medium. A sample of the microorganism was prepared as follows: After each of the microorganisms was cultivated on agar culture medium, one colony was taken. And then the colony was inoculated into broths of 5 ml, which was cultivated for two hours. The sample prepared as mentioned above was kept in cold storage for the following use. The broths used for cultivation were diluted gradually from an undiluted solution to 10-8, and then they were painted over the agar culture medium. One control was obtained from each of the diluted samples, and seven samples for test were obtained from each of the diluted samples. The control and samples were subject to pre-incubation in the incubator with the temperature of 37° C. for 30 minutes, which was used for sterilization test.
(§3) The concentration of the ozone in the sterilizing and disinfecting room reached 50 ppm within two or three minutes. And the concentration of the ozone was adjusted so that it was maintained to 70 ppm.
(§4) The humidity was maintained to 50%. The agar culture medium was placed on several position where it was not exposed to the ultraviolet rays and it had good ventilation. One agar culture medium corresponding to the bedclothes as a test sample was taken every ten minutes after the generator for generating the ultraviolet rays and the ozone was operated. The agar culture medium was cultivated together with the control sample in the incubator with the temperature of 37° C. for 48 hours. […] The number of the real microorganisms and the number of the surviving microorganisms were added together taking the number of the colony and the dilution rate of each sample into account. The test as mentioned above was repeated three times for the purpose of obtaining the statistical effectiveness.

Escherichia coli DH12S = test: as above; assay type: cell-based; settings: E. coli, ozone 70 ppm, humidity 50%, no direct UV
Description: as §1, §2, §3, §4

[3] = tested on: Candida albicans KCTC 7965; test: as above; assay type: cell-based; settings: C. albicans, ozone 70 ppm, humidity 50%, no direct UV
Description: as §1, §2, §3, §4

O=[O+][O-] [ozone]
Killing of young mites [1]: all of the young mites were killed
State of surviving large mites [1]: a few surviving large mites were not able to be active normally, which were dead as times went by
Number of dead mites ([1]; twenty mites, microscopic examination): most of the mites (for example, seventeen mites) were killed
Number of surviving microorganisms (surviving colonies) ([2]; exposure 10 min.): 1,220,000
Number of surviving microorganisms (surviving colonies) ([2]; exposure 20 min.): 101,000
Number of surviving microorganisms (surviving colonies) ([2]; exposure 30 min.): 9,100
Number of surviving microorganisms (surviving colonies) ([2]; exposure 40 min.): 1,260
Number of surviving microorganisms (surviving colonies) ([2]; exposure 50 min.): 345
Number of surviving microorganisms (surviving colonies) ([2]; exposure 60 min.): 96
Number of surviving microorganisms (surviving colonies) (Escherichia coli DH12S; exposure 10 min.): 11,000
Number of surviving microorganisms (surviving colonies) (Escherichia coli DH12S; exposure 20 min.): 2,700
Number of surviving microorganisms (surviving colonies) (Escherichia coli DH12S; exposure 30 min.): 559
Number of surviving microorganisms (surviving colonies) (Escherichia coli DH12S; exposure 40 min.): 270
Number of surviving microorganisms (surviving colonies) (Escherichia coli DH12S; exposure 50 min.): 101
Number of surviving microorganisms (surviving colonies) (Escherichia coli DH12S; exposure 60 min.): 52
Number of surviving microorganisms (surviving colonies) ([3]; exposure 10 min.): 12,400
Number of surviving microorganisms (surviving colonies) ([3]; exposure 20 min.): 2,840
Number of surviving microorganisms (surviving colonies) ([3]; exposure 30 min.): 960
Number of surviving microorganisms (surviving colonies) ([3]; exposure 40 min.): 388
Number of surviving microorganisms (surviving colonies) ([3]; exposure 50 min.): 192
Number of surviving microorganisms (surviving colonies) ([3]; exposure 60 min.): 118
